Source: publication PMC11864979, “First-in-class ultralong-target-residence-time p38α inhibitors as a mitosis-targeted therapy for colorectal cancer” (Nature Cancer, 2025)
Where two headings read alike, the source gives them in different places.

How the values were obtained:
Experiment in all cases: selectivity profiling in a panel of 340 wild-type kinases (Reaction Biology Europe)
Format in all cases: binding
340 wild-type kinases [1] = target: T1, 340 wild-type kinases (Homo sapiens, UniProt P12931)
T1 construct: purchased Reaction Biology Europe
T1 sequence (P12931 whole entry): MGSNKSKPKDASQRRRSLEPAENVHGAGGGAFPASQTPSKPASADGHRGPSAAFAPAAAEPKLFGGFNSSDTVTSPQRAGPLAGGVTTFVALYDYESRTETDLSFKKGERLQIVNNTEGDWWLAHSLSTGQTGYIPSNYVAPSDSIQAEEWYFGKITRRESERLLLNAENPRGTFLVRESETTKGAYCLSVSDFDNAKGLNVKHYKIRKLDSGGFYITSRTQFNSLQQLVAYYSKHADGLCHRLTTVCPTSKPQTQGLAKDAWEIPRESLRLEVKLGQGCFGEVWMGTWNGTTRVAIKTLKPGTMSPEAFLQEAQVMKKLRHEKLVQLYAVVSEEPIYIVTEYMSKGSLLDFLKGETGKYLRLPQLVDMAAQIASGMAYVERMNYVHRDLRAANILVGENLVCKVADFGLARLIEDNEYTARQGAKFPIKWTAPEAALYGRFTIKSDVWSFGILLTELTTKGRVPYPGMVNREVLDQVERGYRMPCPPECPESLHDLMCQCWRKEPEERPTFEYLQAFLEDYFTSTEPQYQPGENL

340 wild-type kinases [2] = target: T2, 340 wild-type kinases (Homo sapiens, UniProt Q8TD08)
T2 construct: purchased Reaction Biology Europe
T2 sequence (Q8TD08 1-544): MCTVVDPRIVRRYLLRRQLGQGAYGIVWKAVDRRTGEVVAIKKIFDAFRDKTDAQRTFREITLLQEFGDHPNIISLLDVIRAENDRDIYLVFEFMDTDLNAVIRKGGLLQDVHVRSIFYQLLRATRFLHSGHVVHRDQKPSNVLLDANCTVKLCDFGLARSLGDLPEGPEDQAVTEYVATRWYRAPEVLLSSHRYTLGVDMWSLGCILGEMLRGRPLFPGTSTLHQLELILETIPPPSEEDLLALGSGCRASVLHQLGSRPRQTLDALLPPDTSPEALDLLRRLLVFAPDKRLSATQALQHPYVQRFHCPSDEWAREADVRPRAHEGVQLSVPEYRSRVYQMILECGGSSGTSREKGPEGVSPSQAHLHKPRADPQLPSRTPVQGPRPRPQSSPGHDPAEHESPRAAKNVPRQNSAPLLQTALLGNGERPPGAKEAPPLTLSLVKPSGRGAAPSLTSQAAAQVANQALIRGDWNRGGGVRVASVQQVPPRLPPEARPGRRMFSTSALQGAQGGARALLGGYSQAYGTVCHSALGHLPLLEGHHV

340 wild-type kinases [3] = target: T3, 340 wild-type kinases (Homo sapiens, UniProt O00506)
T3 construct: purchased Reaction Biology Europe
T3 sequence (O00506 whole entry): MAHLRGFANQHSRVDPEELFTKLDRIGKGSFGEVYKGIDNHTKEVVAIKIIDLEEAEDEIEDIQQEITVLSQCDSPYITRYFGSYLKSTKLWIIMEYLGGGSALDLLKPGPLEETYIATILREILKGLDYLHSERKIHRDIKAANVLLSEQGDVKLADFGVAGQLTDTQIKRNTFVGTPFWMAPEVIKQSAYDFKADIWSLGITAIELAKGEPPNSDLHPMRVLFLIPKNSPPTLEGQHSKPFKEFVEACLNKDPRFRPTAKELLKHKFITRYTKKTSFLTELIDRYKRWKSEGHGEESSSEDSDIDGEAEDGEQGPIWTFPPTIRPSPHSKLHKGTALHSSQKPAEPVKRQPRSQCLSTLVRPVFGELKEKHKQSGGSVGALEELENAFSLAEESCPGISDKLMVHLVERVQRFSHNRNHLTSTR

340 wild-type kinases [4] = target: T4, 340 wild-type kinases (Homo sapiens, UniProt P21802)
T4 construct: purchased Reaction Biology Europe

340 wild-type kinases [5] = target: T5, 340 wild-type kinases (Homo sapiens, UniProt Q9Y6M4)
T5 construct: purchased Reaction Biology Europe
T5 sequence (Q9Y6M4 whole entry): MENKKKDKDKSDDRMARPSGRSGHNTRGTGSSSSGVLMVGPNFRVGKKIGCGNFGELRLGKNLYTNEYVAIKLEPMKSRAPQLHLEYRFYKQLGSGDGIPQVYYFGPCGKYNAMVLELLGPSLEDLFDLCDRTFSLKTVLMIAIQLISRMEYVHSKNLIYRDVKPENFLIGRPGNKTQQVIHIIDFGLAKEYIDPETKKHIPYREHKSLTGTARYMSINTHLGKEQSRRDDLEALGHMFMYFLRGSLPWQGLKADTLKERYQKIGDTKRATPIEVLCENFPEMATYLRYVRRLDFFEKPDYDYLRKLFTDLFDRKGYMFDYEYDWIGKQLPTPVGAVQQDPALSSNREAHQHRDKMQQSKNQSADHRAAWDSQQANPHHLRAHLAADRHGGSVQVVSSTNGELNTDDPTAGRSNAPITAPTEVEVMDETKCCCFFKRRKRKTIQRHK

340 wild-type kinases [6] = target: T6, 340 wild-type kinases (Homo sapiens, UniProt Q14289)
T6 construct: purchased Reaction Biology Europe

340 wild-type kinases [7] = target: T7, 340 wild-type kinases (Homo sapiens, UniProt P53350)
T7 construct: purchased Reaction Biology Europe
T7 sequence (P53350 whole entry): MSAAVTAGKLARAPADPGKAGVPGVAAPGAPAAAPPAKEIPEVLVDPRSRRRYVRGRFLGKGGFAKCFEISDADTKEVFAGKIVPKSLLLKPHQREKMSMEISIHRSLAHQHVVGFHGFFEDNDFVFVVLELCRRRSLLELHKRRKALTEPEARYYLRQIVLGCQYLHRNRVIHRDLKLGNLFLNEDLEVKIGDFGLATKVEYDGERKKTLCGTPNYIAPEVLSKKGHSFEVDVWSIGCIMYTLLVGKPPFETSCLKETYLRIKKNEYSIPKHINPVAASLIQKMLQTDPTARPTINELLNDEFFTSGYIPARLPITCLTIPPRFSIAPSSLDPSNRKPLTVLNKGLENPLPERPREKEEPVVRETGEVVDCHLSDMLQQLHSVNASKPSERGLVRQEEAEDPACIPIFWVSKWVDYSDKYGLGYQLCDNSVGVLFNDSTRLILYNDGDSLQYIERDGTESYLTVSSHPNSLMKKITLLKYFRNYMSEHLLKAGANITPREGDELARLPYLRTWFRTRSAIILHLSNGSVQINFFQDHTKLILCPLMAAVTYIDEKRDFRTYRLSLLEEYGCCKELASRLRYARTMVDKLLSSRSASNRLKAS

340 wild-type kinases [8] = target: T8, 340 wild-type kinases (Homo sapiens, UniProt Q16513)
T8 construct: purchased Reaction Biology Europe

340 wild-type kinases [9] = target: T9, 340 wild-type kinases (Homo sapiens, UniProt Q99558)
T9 construct: purchased Reaction Biology Europe
T9 sequence (Q99558 whole entry): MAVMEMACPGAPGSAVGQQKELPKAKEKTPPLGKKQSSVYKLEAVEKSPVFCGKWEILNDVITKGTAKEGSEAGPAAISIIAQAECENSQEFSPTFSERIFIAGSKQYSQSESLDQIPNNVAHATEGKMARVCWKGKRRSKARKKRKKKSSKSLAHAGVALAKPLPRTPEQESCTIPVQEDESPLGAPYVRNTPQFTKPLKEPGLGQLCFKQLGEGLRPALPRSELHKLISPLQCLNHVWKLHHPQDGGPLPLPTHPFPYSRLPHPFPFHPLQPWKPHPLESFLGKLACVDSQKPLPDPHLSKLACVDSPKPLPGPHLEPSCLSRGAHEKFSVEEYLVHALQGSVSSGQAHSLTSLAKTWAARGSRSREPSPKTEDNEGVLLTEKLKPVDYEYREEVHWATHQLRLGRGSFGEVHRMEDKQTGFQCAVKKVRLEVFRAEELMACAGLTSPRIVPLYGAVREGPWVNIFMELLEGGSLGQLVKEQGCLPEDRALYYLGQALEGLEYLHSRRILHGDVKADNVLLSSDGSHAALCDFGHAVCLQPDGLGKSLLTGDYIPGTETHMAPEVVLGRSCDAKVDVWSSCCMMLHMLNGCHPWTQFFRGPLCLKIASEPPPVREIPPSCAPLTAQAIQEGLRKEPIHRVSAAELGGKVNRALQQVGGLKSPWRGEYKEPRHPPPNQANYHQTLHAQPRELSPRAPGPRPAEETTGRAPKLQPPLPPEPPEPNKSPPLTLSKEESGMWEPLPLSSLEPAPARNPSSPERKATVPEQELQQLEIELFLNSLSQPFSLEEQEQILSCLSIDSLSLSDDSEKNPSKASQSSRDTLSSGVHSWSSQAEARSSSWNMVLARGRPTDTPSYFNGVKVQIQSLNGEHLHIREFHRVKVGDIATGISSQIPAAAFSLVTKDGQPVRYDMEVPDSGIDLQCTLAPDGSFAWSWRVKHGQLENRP

340 wild-type kinases [10] = target: T10, 340 wild-type kinases (Homo sapiens, UniProt P54756)
T10 construct: purchased Reaction Biology Europe
T10 sequence (P54756 25-1037): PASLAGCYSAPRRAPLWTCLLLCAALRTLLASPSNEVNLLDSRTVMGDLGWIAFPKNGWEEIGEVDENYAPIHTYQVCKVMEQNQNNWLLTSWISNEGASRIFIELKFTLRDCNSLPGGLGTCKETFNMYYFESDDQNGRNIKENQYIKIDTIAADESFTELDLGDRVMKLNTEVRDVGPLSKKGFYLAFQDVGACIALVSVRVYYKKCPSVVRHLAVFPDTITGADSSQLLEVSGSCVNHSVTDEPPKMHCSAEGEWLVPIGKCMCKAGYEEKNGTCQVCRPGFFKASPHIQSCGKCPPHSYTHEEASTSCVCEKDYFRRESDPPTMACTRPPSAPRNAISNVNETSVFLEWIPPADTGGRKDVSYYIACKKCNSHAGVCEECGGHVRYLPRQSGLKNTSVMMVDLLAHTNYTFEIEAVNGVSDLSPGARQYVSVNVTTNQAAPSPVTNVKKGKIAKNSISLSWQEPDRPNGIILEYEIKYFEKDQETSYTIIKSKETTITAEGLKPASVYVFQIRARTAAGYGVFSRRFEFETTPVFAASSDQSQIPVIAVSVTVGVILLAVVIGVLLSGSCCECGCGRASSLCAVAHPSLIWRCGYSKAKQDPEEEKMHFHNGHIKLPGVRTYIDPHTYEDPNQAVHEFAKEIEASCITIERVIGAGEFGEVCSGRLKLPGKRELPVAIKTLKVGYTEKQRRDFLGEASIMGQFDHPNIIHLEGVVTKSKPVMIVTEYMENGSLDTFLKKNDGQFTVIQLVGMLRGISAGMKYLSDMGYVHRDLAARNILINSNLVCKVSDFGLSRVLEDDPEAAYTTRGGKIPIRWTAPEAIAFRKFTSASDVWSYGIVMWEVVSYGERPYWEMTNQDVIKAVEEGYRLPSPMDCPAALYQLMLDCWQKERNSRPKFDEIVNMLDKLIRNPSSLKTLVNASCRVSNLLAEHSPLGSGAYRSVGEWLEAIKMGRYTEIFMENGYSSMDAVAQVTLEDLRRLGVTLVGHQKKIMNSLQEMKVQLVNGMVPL

340 wild-type kinases [11] = target: T11, 340 wild-type kinases (Homo sapiens, UniProt Q13627)
T11 construct: purchased Reaction Biology Europe

340 wild-type kinases [12] = target: T12, 340 wild-type kinases (Homo sapiens, UniProt Q5TCX8)
T12 construct: purchased Reaction Biology Europe
T12 sequence (Q5TCX8 whole entry): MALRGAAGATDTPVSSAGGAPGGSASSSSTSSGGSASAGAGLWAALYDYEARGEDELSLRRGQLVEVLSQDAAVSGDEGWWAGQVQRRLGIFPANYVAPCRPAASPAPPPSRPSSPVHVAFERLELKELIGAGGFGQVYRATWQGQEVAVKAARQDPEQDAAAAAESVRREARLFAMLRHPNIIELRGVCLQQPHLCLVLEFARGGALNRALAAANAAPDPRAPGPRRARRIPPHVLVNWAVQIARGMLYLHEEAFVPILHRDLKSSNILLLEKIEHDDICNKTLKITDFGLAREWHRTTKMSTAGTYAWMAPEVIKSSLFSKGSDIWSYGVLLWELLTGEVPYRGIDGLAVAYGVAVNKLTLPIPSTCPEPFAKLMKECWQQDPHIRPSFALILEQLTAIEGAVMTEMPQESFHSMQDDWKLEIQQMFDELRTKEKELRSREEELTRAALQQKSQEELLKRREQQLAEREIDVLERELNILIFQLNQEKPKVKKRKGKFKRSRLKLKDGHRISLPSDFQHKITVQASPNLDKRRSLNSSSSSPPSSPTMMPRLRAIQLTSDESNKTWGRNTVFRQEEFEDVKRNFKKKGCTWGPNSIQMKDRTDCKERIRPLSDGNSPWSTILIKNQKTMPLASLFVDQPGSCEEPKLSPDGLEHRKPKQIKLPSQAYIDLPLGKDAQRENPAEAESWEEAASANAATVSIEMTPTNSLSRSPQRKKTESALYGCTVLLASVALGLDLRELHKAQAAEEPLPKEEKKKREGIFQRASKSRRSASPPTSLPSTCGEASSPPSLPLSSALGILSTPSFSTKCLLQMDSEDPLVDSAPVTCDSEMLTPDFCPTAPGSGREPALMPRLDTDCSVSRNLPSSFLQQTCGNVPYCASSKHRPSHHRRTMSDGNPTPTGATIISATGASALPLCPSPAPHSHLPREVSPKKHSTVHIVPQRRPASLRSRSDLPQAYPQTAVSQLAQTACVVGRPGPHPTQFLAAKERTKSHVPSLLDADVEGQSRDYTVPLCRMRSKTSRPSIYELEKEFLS

340 wild-type kinases [13] = target: T13, 340 wild-type kinases (Homo sapiens, UniProt Q92630)
T13 construct: purchased Reaction Biology Europe
T13 sequence (Q92630 1-601): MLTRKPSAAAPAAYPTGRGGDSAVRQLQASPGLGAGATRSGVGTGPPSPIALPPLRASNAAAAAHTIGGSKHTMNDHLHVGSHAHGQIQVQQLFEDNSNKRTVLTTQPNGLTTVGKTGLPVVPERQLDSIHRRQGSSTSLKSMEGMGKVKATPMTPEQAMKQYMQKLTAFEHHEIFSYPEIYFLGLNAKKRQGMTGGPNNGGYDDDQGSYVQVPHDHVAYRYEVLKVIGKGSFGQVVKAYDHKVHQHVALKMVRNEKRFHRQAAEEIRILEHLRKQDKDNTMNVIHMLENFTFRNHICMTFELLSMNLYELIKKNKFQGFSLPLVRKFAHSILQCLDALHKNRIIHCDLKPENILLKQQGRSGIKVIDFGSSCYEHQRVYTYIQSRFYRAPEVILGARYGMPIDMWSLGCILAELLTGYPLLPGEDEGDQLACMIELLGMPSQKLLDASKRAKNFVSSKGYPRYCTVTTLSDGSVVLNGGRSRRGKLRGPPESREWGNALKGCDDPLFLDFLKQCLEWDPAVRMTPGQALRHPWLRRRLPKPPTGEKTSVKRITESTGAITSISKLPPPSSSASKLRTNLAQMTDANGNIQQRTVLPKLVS

SMILES: CNC(=O)c1ccc2c(c1)C(=O)c1ccc(Nc3ccc(F)c(NC(=O)C4CC4)c3)cc1CC2 [Compound 2015]
- remaining activity at 0.2 µM (340 wild-type kinases [1]; 0.2 µM 2015, read-out: SRC residual activity): 105%
- remaining activity at 1 µM (340 wild-type kinases [1]; 1 µM 2015, read-out: SRC residual activity): 95.5%
- remaining activity at 0.2 µM (340 wild-type kinases [1]; SRC, 0.2 µM, read-out: residual activity): 105%
- remaining activity at 1 µM (340 wild-type kinases [1]; SRC, 1 µM, read-out: residual activity): 95.5%
- remaining activity at 0.2 µM (340 wild-type kinases [2]; 0.2 µM 2015, read-out: ERK7 residual activity): 93%
- remaining activity at 1 µM (340 wild-type kinases [2]; 1 µM 2015, read-out: ERK7 residual activity): 82.2%
- remaining activity at 0.2 µM (340 wild-type kinases [2]; ERK7, 0.2 µM, read-out: residual activity): 93%
- remaining activity at 1 µM (340 wild-type kinases [2]; ERK7, 1 µM, read-out: residual activity): 82.2%
- remaining activity at 0.2 µM (340 wild-type kinases [3]; 0.2 µM 2015, read-out: STK25 residual activity): 88.2%
- remaining activity at 1 µM (340 wild-type kinases [3]; 1 µM 2015, read-out: STK25 residual activity): 83.6%
- remaining activity at 0.2 µM (340 wild-type kinases [3]; STK25, 0.2 µM, read-out: residual activity): 88.2%
- remaining activity at 1 µM (340 wild-type kinases [3]; STK25, 1 µM, read-out: residual activity): 83.6%
- remaining activity at 0.2 µM (340 wild-type kinases [4]; 0.2 µM 2015, read-out: FGFR2 residual activity): 94.1%
- remaining activity at 1 µM (340 wild-type kinases [4]; 1 µM 2015, read-out: FGFR2 residual activity): 96%
- remaining activity at 0.2 µM (340 wild-type kinases [4]; FGFR2, 0.2 µM, read-out: residual activity): 94.1%
- remaining activity at 1 µM (340 wild-type kinases [4]; FGFR2, 1 µM, read-out: residual activity): 96%
- remaining activity at 0.2 µM (340 wild-type kinases [5]; 0.2 µM 2015, read-out: CK1gamma3 residual activity): 93.4%
- remaining activity at 1 µM (340 wild-type kinases [5]; 1 µM 2015, read-out: CK1gamma3 residual activity): 91%
- remaining activity at 0.2 µM (340 wild-type kinases [5]; CK1gamma3, 0.2 µM, read-out: residual activity): 93.4%
- remaining activity at 1 µM (340 wild-type kinases [5]; CK1gamma3, 1 µM, read-out: residual activity): 91%
- remaining activity at 0.2 µM (340 wild-type kinases [6]; 0.2 µM 2015, read-out: PYK2 residual activity): 98.8%
- remaining activity at 1 µM (340 wild-type kinases [6]; 1 µM 2015, read-out: PYK2 residual activity): 86.1%
- remaining activity at 0.2 µM (340 wild-type kinases [6]; PYK2, 0.2 µM, read-out: residual activity): 98.8%
- remaining activity at 1 µM (340 wild-type kinases [6]; PYK2, 1 µM, read-out: residual activity): 86.1%
- remaining activity at 0.2 µM (340 wild-type kinases [7]; 0.2 µM 2015, read-out: PLK1 residual activity): 94.2%
- remaining activity at 1 µM (340 wild-type kinases [7]; 1 µM 2015, read-out: PLK1 residual activity): 96.3%
- remaining activity at 0.2 µM (340 wild-type kinases [7]; PLK1, 0.2 µM, read-out: residual activity): 94.2%
- remaining activity at 1 µM (340 wild-type kinases [7]; PLK1, 1 µM, read-out: residual activity): 96.3%
- remaining activity at 0.2 µM (340 wild-type kinases [8]; 0.2 µM 2015, read-out: PRK2 residual activity): 89.2%
- remaining activity at 1 µM (340 wild-type kinases [8]; 1 µM 2015, read-out: PRK2 residual activity): 91.1%
- remaining activity at 0.2 µM (340 wild-type kinases [8]; PRK2, 0.2 µM, read-out: residual activity): 89.2%
- remaining activity at 1 µM (340 wild-type kinases [8]; PRK2, 1 µM, read-out: residual activity): 91.1%
- remaining activity at 0.2 µM (340 wild-type kinases [9]; 0.2 µM 2015, read-out: NIK residual activity): 113%
- remaining activity at 1 µM (340 wild-type kinases [9]; 1 µM 2015, read-out: NIK residual activity): 90.5%
- remaining activity at 0.2 µM (340 wild-type kinases [9]; NIK, 0.2 µM, read-out: residual activity): 113%
- remaining activity at 1 µM (340 wild-type kinases [9]; NIK, 1 µM, read-out: residual activity): 90.5%
- remaining activity at 0.2 µM (340 wild-type kinases [10]; 0.2 µM 2015, read-out: EPHA5 residual activity): 110%
- remaining activity at 1 µM (340 wild-type kinases [10]; 1 µM 2015, read-out: EPHA5 residual activity): 98.5%
- remaining activity at 0.2 µM (340 wild-type kinases [10]; EPHA5, 0.2 µM, read-out: residual activity): 110%
- remaining activity at 1 µM (340 wild-type kinases [10]; EPHA5, 1 µM, read-out: residual activity): 98.5%
- remaining activity at 0.2 µM (340 wild-type kinases [11]; 0.2 µM 2015, read-out: DYRK1A residual activity): 86.7%
- remaining activity at 1 µM (340 wild-type kinases [11]; 1 µM 2015, read-out: DYRK1A residual activity): 90.3%
- remaining activity at 0.2 µM (340 wild-type kinases [11]; DYRK1A, 0.2 µM, read-out: residual activity): 86.8%
- remaining activity at 1 µM (340 wild-type kinases [11]; DYRK1A, 1 µM, read-out: residual activity): 90.3%
- remaining activity at 0.2 µM (340 wild-type kinases [12]; 0.2 µM 2015, read-out: MLK4 residual activity): 96.4%
- remaining activity at 1 µM (340 wild-type kinases [12]; 1 µM 2015, read-out: MLK4 residual activity): 87.1%
- remaining activity at 0.2 µM (340 wild-type kinases [12]; MLK4, 0.2 µM, read-out: residual activity): 96.4%
- remaining activity at 1 µM (340 wild-type kinases [12]; MLK4, 1 µM, read-out: residual activity): 87.1%
- remaining activity at 0.2 µM (340 wild-type kinases [13]; 0.2 µM 2015, read-out: DYRK2 residual activity): 95.7%
- remaining activity at 1 µM (340 wild-type kinases [13]; 1 µM 2015, read-out: DYRK2 residual activity): 94.2%
- remaining activity at 0.2 µM (340 wild-type kinases [13]; DYRK2, 0.2 µM, read-out: residual activity): 95.7%
- remaining activity at 1 µM (340 wild-type kinases [13]; DYRK2, 1 µM, read-out: residual activity): 94.2%
